# According to ChEMBL document CHEMBL1614632, “Trend analysis of a database of intravenous pharmacokinetic parameters in humans for 670 drug compounds” (Drug Metab Dispos, 2008):
# Square brackets hold non-standard residues; d marks the D form. Peptide text beside a SMILES is read from it. dPhe(4-Cl) = N[C@H](Cc1ccc(Cl)cc1)C(=O)O; d2Nal = N[C@H](Cc1ccc2ccccc2c1)C(=O)O; dCit = NC(=O)NCCC[C@@H](N)C(=O)O; d3Pal = N[C@H](Cc1cccnc1)C(=O)O
# Legend:
# [1] = clinical; conditions: human, in vivo, iv
# [2] = clinical; conditions: human, in vivo, iv, Vdss
# [3] = clinical; conditions: human, in vivo, iv, t1/2
# [4] = clinical; conditions: human, in vivo, iv, CL
# [5] = clinical; conditions: human, in vivo, iv; remark: listed apart in the source
SMILES,fraction unbound [1],Vd [2] [L/kg],half-life [3] [h],clearance [4] [mL/min/kg],MRT [5] [h]
CCN(CC)CCNC(=O)c1ccc(NC(C)=O)cc1 [ACECAINIDE],0.9,1.9,6.4,4,7.9
CC(=O)Nc1nnc(S(N)(=O)=O)s1 [ACETAZOLAMIDE],0.04,0.37,13,0.65,9.5
CC(=O)N[C@@H](CS)C(=O)O [ACETYLCYSTEINE],0.17,0.55,5.5,3.1,3
CN(C)CCc1c[nH]c2ccc(CS(=O)(=O)N3CCCC3)cc12 [ALMOTRIPTAN],0.6,2.2,3.4,8.9,4.2
CN1CC[C@H](c2c(O)cc(O)c3c(=O)cc(-c4ccccc4Cl)oc23)[C@H](O)C1 [ALVOCIDIB],0.06,1.5,5.2,6.1,4
NCC[C@H](O)C(=O)N[C@@H]1C[C@H](N)[C@@H](O[C@H]2O[C@H](CN)[C@@H](O)[C@H](O)[C@H]2O)[C@H](O)[C@H]1O[C@H]1O[C@H](CO)[C@@H](O)[C@H](N)[C@H]1O [AMIKACIN],0.88,0.16,2.4,1.1,2.4
NCCCCCC(=O)O [AMINOCAPROIC ACID],0.92,0.39,4.9,2.5,2.6
COc1cc(NS(C)(=O)=O)ccc1Nc1c2ccccc2nc2ccccc12 [AMSACRINE],0.029,1.6,4.7,4.3,6.2
CCCC1C(=O)N2C(N(C)C)=Nc3ccc(C)cc3N2C1=O (stereo not given) [APAZONE],0.004,0.12,17,0.14,14
O=C1CCc2ccc(OCCCCN3CCN(c4cccc(Cl)c4Cl)CC3)cc2N1 [ARIPIPRAZOLE],0.01,4.9,75,0.83,98
CC(=O)Oc1ccccc1C(=O)O [ASPIRIN],0.68,0.22,0.26,12,0.3
CNC(=O)c1cccc2c(Nc3ccc(NS(C)(=O)=O)cc3OC)c3cccc(C)c3nc12 [ASULACRINE],0.0011,0.3,2.4,2.6,1.9
O=C1C(O)=C([C@H]2CC[C@H](c3ccc(Cl)cc3)CC2)C(=O)c2ccccc21 [ATOVAQUONE],0.001,0.6,63,0.15,67
CN1CCN(CCCCN2C(=O)CN(/N=C/c3ccc(-c4ccc(Cl)cc4)o3)C2=O)CC1 [AZIMILIDE],0.06,13,79,2.4,100
CC1(C)S[C@@H]2[C@H](NC(=O)[C@H](NC(=O)N3CCNC3=O)c3ccccc3)C(=O)N2[C@H]1C(=O)O [AZLOCILLIN],0.65,0.26,1.2,2.5,1.7
CCC(=O)OCC(=O)[C@@]1(OC(=O)CC)[C@@H](C)C[C@H]2[C@@H]3CCC4=CC(=O)C=C[C@]4(C)[C@@]3(Cl)[C@@H](O)C[C@@]21C [BECLOMETHASONE DIPROPIONATE],0.13,0.29,0.5,36,0.1
COc1ccc(CCNCC(O)COc2cccc(C)c2)cc1OC (stereo not given) [BEVANTOLOL],0.015,0.67,1.9,5.5,2
C[C@@H](O)[C@H]1C(=O)N2C(C(=O)[O-])=C(SC3Cn4cnc[n+]4C3)[C@H](C)[C@H]12 (stereo not given in full) [BIAPENEM],0.92,0.2,1.1,2.5,1.3
COc1ccccc1Oc1c(NS(=O)(=O)c2ccc(C(C)(C)C)cc2)nc(-c2ncccn2)nc1OCCO [BOSENTAN],0.037,0.29,4.1,2.1,2.3
Nc1c(CC(=O)O)cccc1C(=O)c1ccc(Br)cc1 [BROMFENAC],0.0011,0.11,2.6,1.3,1.5
CCN(CC)CCNC(=O)c1cc(Br)c(N)cc1OC [BROMOPRIDE],0.6,3.1,2.9,13,4

SMILES,fraction unbound [1],Vd [2] [L/kg],half-life [3] [h],clearance [4] [mL/min/kg],MRT [5] [h]
Cc1nnc2n1-c1sc(Br)cc1C(c1ccccc1Cl)=NC2 [BROTIZOLAM],0.092,0.75,4.8,2,6
CCCC(=O)N1CCCN(c2nc(N)c3cc(OC)c(OC)cc3n2)CC1 [BUNAZOSIN],0.06,0.72,2,4.8,2.5
Oc1ccc2c(c1)[C@@]13CCCC[C@@]1(O)[C@@H](C2)N(CC1CCC1)CC3 [BUTORPHANOL],0.17,12,4.8,41,5.3
O=NN(CCCl)C(=O)NCCCl [CARMUSTINE],0.23,1.2,0.37,78,0.26
NC(=O)OC[C@@H]1[C@H](NC(=O)/C(=N\OCC(=O)O)c2csc(N)n2)C(=O)N1S(=O)(=O)O [CARUMONAM],0.72,0.18,1.6,1.5,2
Cn1nnnc1SCC1=C(C(=O)O)N2C(=O)[C@@H](NC(=O)[C@H](O)c3ccccc3)[C@H]2SC1 [CEFAMANDOLE],0.25,0.16,0.75,3.6,0.75
CO[C@@]1(NC(=O)CSCC#N)C(=O)N2C(C(=O)O)=C(CSc3nnnn3C)CS[C@@H]21 [CEFMETAZOLE],0.15,0.13,1.5,1.5,1.5
CO/N=C(\C(=O)N[C@@H]1C(=O)N2C(C(=O)O)=C(CSc3nc(C)c(CC(=O)O)s3)CS[C@H]12)c1csc(N)n1 [CEFODIZIME],0.18,0.054,4.2,0.61,1.5
NCc1ccccc1CC(=O)N[C@@H]1C(=O)N2C(C(=O)O)=C(CSc3nnnn3CC(=O)O)CS[C@H]12 [CEFORANIDE],0.19,0.17,3,0.66,4.3
CO/N=C(\C(=O)N[C@@H]1C(=O)N2C(C(=O)O)=C(COC(C)=O)CS[C@H]12)c1csc(N)n1 [CEFOTAXIME],0.6,0.19,1.2,2.7,1.2
CO[C@@]1(NC(=O)Cc2cccs2)C(=O)N2C(C(=O)O)=C(COC(N)=O)CS[C@@H]21 [CEFOXITIN],0.73,0.17,0.81,3.6,0.79
CO/N=C(\C(=O)N[C@@H]1C(=O)N2C(C(=O)[O-])=C(C[n+]3cccc4c3CCC4)CS[C@H]12)c1csc(N)n1 [CEFPIROME],0.9,0.24,1.7,1.9,2.1
CO/N=C(\C(=O)N[C@@H]1C(=O)N2C(C(=O)O)=CCS[C@H]12)c1csc(N)n1 [CEFTIZOXIME],0.72,0.2,1.5,2.1,1.6
Nc1nc(/C(=N/O)C(=O)N[C@@H]2C(=O)N3C(C(=O)O)=C(/C=C4\CCN([C@@H]5CCNC5)C4=O)CS[C@H]23)ns1 [CEFTOBIPROLE],0.62,0.27,3.3,1.5,3
CO/N=C(\C(=O)N[C@@H]1C(=O)N2C(C(=O)O)=C(CSc3nc(=O)c(=O)[nH]n3C)CS[C@H]12)c1csc(N)n1 [CEFTRIAXONE],0.052,0.085,8.6,0.26,5.4
CO/N=C(\C(=O)N[C@@H]1C(=O)N2C(C(=O)O)=C(COC(N)=O)CS[C@H]12)c1ccco1 [CEFUROXIME],0.12,0.15,1.1,2.2,1.1
O=C(Cc1cccs1)N[C@@H]1C(=O)N2C(C(=O)[O-])=C(C[n+]3ccccc3)CS[C@H]12 [CEPHALORIDINE],0.8,0.46,1.5,3.3,2.3
CC(=O)OCC1=C(C(=O)O)N2C(=O)[C@@H](NC(=O)Cc3cccs3)[C@H]2SC1 [CEPHALOTHIN],0.22,0.07,0.95,1.8,0.65
CC(=O)OCC1=C(C(=O)O)N2C(=O)[C@@H](NC(=O)CSc3ccncc3)[C@H]2SC1 [CEPHAPIRIN],0.55,0.13,1.2,2.7,0.8
CC(=O)N[C@H](Cc1ccc2ccccc2c1)C(=O)N[C@H](Cc1ccc(Cl)cc1)C(=O)N[C@H](Cc1cccnc1)C(=O)N[C@@H](CO)C(=O)N[C@@H](Cc1ccc(O)cc1)C(=O)N[C@H](CCCNC(N)=O)C(=O)N[C@@H](CC(C)C)C(=O)N[C@@H](CCCNC(=N)N)C(=O)N1CCC[C@H]1C(=O)N[C@H](C)C(N)=O [CETRORELIX] (Ac-[d2Nal][dPhe(4-Cl)][d3Pal]SY[dCit]LRP[dA]-NH2),0.14,0.39,12,1.2,5.4
